Measured values as given in PubChem BioAssay AID1919007 (Molecular Pharmacology Branch, DTP, NCI, 2023).
pIC50: −log10 of the molar value. Where “and” joins values, the source holds several entries; their conditions need not be identical. Equal values may be shown once.

Tested on: A498 complex spheroids with HUVEC/MSC, growth
Test: Anticancer human tumor A498 cell line growth inhibition [AhR];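 also: seven day exposure starting three days after spheroid seeding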;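 as to viability, T/C: luminescence signal used as a surrogate for viable cells; luminescence viability scaled so 100% equals DMSO vehicle wells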
Conditions: for viability, T/C: stronger effect = lower value
Procedure, shortened: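 Spheroids combined tumor cells with HUVEC endothelial cells and human MSCs as stroma. AhR antagonists were paired with standard or investigational drugs, each dosed in half-log steps down from near clinical Cmax, or from 10 microM where Cmax was unknown.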

[1] = curve of first compound, second compound 0.1 µM
[2] = curve of first compound, second compound 0.316 µM
[3] = curve of first compound, second compound 1 µM
[4] = curve of first compound, second compound 3.16 µM
[5] = curve of first compound, second compound 10 µM
[6] = second compound 0.1 µM, first compound 0.0316 µM
[7] = second compound 0.1 µM, first compound 0.1 µM
[8] = second compound 0.1 µM, first compound 0.316 µM
[9] = second compound 0.1 µM, first compound 1 µM
[10] = second compound 0.1 µM, first compound 3.16 µM
[11] = second compound 0.1 µM, first compound 10 µM
[12] = second compound 0.316 µM, first compound 0.0316 µM
[13] = second compound 0.316 µM, first compound 0.1 µM
[14] = second compound 0.316 µM, first compound 0.316 µM
[15] = second compound 0.316 µM, first compound 1 µM
[16] = second compound 0.316 µM, first compound 3.16 µM
[17] = second compound 0.316 µM, first compound 10 µM
[18] = second compound 1 µM, first compound 0.0316 µM
[19] = second compound 1 µM, first compound 0.1 µM
[20] = second compound 1 µM, first compound 0.316 µM
[21] = second compound 1 µM, first compound 1 µM
[22] = second compound 1 µM, first compound 3.16 µM
[23] = second compound 1 µM, first compound 10 µM
[24] = second compound 3.16 µM, first compound 0.0316 µM
[25] = second compound 3.16 µM, first compound 0.1 µM
[26] = second compound 3.16 µM, first compound 0.316 µM
[27] = second compound 3.16 µM, first compound 1 µM
[28] = second compound 3.16 µM, first compound 3.16 µM
[29] = second compound 3.16 µM, first compound 10 µM
[30] = second compound 10 µM, first compound 0.0316 µM
[31] = second compound 10 µM, first compound 0.1 µM
[32] = second compound 10 µM, first compound 0.316 µM
[33] = second compound 10 µM, first compound 1 µM
[34] = second compound 10 µM, first compound 3.16 µM
[35] = second compound 10 µM, first compound 10 µM

Nc1ccn(C2OC(CO)C(O)C2(F)F)c(=O)n1 (centres undefined) + CC(CO)NC(=O)c1cc(-c2ccc(Cl)cc2)nn(-c2cnn(C)c2)c1=O
pIC50 [1]: > 7.50
pIC50 [2]: > 7.50
pIC50 [3]: > 7.50
pIC50 [4]: > 7.50
pIC50 [5]: > 7.50
viability, T/C [6]: 26.1%
viability, T/C [7]: 25.7%
viability, T/C [8]: 24.6%
viability, T/C [9]: 35.1%
viability, T/C [10]: 32.8%
viability, T/C [11]: 29.9%
viability, T/C [12]: 27.5%
viability, T/C [13]: 25.8%
viability, T/C [14]: 31%
viability, T/C [15]: 32.3%
viability, T/C [16]: 35%
viability, T/C [17]: 28.3%
viability, T/C [18]: 25.6%
viability, T/C [19]: 29.8%
viability, T/C [20]: 32.1%
viability, T/C [21]: 30.2%
viability, T/C [22]: 34.4%
viability, T/C [23]: 29.2%
viability, T/C [24]: 27.6%
viability, T/C [25]: 26.1%
viability, T/C [26]: 34.2%
viability, T/C [27]: 33.7%
viability, T/C [28]: 29.6%
viability, T/C [29]: 27.8%
viability, T/C [30]: 33.2%
viability, T/C [31]: 30.1%
viability, T/C [32]: 27%
viability, T/C [33]: 29.5%
viability, T/C [34]: 27.5%
viability, T/C [35]: 24.1%

COc1cc(C2c3cc4c(cc3C(OC3OC5COC(C)OC5C(O)C3O)C3COC(=O)C23)OCO4)cc(OC)c1O (centres undefined)
viability, T/C (compound 0.0316 µM): 93% and 80.8% and 89.6%
viability, T/C (compound 0.1 µM): 85.5% and 80.2% and 81.8%
viability, T/C (compound 0.316 µM): 78.7% and 63.3% and 72.5%
viability, T/C (compound 1 µM): 71.5% and 64% and 69.3%
viability, T/C (compound 3.16 µM): 66.6% and 52.6% and 68.2%
viability, T/C (compound 10 µM): 51.8% and 40% and 56.3%
pIC50 (curve of compound): < 5.00 and 5.43

CC(C)c1c(-c2ccccc2)nc2c(C#N)c[nH]n2c1=O + CC(CO)NC(=O)c1cc(-c2ccc(Cl)cc2)nn(-c2cnn(C)c2)c1=O
pIC50 [1]: < 5.00
pIC50 [2]: < 5.00
pIC50 [3]: < 5.00
pIC50 [4]: < 5.00
pIC50 [5]: < 5.00
viability, T/C [6]: 94.6%
viability, T/C [7]: 93.3%
viability, T/C [8]: 93.3%
viability, T/C [9]: 96.4%
viability, T/C [10]: 101%
viability, T/C [11]: 103%
viability, T/C [12]: 91.9%
viability, T/C [13]: 90.5%
viability, T/C [14]: 94.6%
viability, T/C [15]: 83.1%
viability, T/C [16]: 87.3%
viability, T/C [17]: 88.5%
viability, T/C [18]: 85.8%
viability, T/C [19]: 92.6%
viability, T/C [20]: 90.7%
viability, T/C [21]: 76.5%
viability, T/C [22]: 87.1%
viability, T/C [23]: 90.7%
viability, T/C [24]: 81.5%
viability, T/C [25]: 86.1%
viability, T/C [26]: 96.2%
viability, T/C [27]: 75.3%
viability, T/C [28]: 75.9%
viability, T/C [29]: 81.5%
viability, T/C [30]: 61.8%
viability, T/C [31]: 63.3%
viability, T/C [32]: 70.5%
viability, T/C [33]: 58.9%
viability, T/C [34]: 64%
viability, T/C [35]: 72.2%

O=C(C=Cc1cccc(S(=O)(=O)Nc2ccccc2)c1)NO
viability, T/C (compound 0.0316 µM): 96.9% and 99.7% and 91.8%
viability, T/C (compound 0.1 µM): 97.1% and 90.4% and 87.2%
viability, T/C (compound 0.316 µM): 77.8% and 90.1% and 67.2%
viability, T/C (compound 1 µM): 56.2% and 65.4% and 52.6%
viability, T/C (compound 3.16 µM): 45.1% and 51.9% and 33.4%
viability, T/C (compound 10 µM): 16.7% and 20.2% and 6.75%
pIC50 (curve of compound): 5.73 and 5.51 and 5.93
